Assays:
[1] = tested on: male corn earworm (CEW, Helicoverpa zea); experiment: field trapping of male CEW in Hartstack traps, nonanal and/or 1-hexanol; type: in vivo; details: for effectiveness in trapping male CEW, without commercial pheromone lure: 0.5% w/w level, without the commercial pheromone lure, sorghum or corn fields; for effectiveness of commercial lure in trapping male CEW when combined: 0.5% w/w with major component of commercial pheromone lure, used in combination with the commercial lure
Excerpt: FIG. 11 is a graph showing the results of a field trapping study of male com earworm (CEW, Helicoverpa zea) using traps containing a dispenser containing a solution of 0.5% nonanal and/or 0.5% 1-hexanol alone or also containing a dispenser for a commercial CEW sex pheromone lure. Effectiveness is reported as number of male CEW capture per day per trap.
To determine the effects of 1-hexanol and combinations of 1-hexanol and nonanal, Hartstack traps with or without the commercial CEW sex pheromone lure and with or without one or both of nonanal and 1-hexanol were placed in sorghum or corn fields. Nonanal and 1-hexanol, if present, were present at 0.5% on a weight to weight basis with the major component of the commercial pheromone lure.

male CEW antenna = experiment: GC-EAD of female sex pheromone gland extract on male CEW antenna; design: species or system Helicoverpa zea; details: compound present in CEW female sex pheromone gland extract
Experimental: Based on the finding that nonanal attracts male CEW in laboratory and field behavioral studies, and as described hereinbelow, a study of the female sex pheromone gland extract of Helicoverpa zea was performed using a gas chromatography-electroantennograom detector (GC-EAD), a device that couples a GC to an insect antenna, the olefactory organ of insects that serves as a biological detector. In this device, the GC separates chemicals in a mixture and presents them to the antenna, and its electrophysiological responses reveal which chemicals it senses. […]
The sex pheromone glands of multiple CEW females were dissected and the contents extracted with hexane. […] In parallel to the GC, the electrophysiological response of the antenna is recorded to identify the active compounds. […] Gland extracts were also analyzed using gas chromatography-mass spectrometry (GC-MS) (6890 GC and 5975 MS, Agilent Technologies, Palo Alto, California, United States of America) The GC-MS was operated in pulsed splitless mode (15 psi for 0.5 min, then 6 psi) and equipped with a DB-WAXetr column (30 m×0.25 mm, df=0.25 μm, Agilent Technologies, Palo Alto, California, United States of America), and helium was used as the carrier gas at an average velocity of 34 cm/s. […]

Drosophila melanogaster [2] = experiment: dual choice free flight cage trapping assay with glass vial traps (water or balsamic vinegar); type: in vivo; details: 24 hours
Excerpt: FIG. 4 is a schematic drawing showing a design for a dual choice free flight cage trapping assay used herein to determine the effect of nonanal on trapping fruit flies (Drosophila melanogaster). A 13 centimeter (cm) by 19 cm by 9.5 cm cage with a mesh opening on the top is equipped with two glass 5.5 cm by 2.5 cm glass vial traps, each equipped with a lid fitted with a truncated pipette tip. At the bottom of each glass vial trap is either water or a fermentation attractant (i.e., balsamic vinegar). Inside each glass vial trap is another smaller glass vial containing either a solution of nonanal in dimethyl sulfoxide (DMSO) or a DMSO without nonanal. The attraction of starved Drosphila melanogaster males and females to balsamic vinegar (Bellino, Cento Fine Foods, Deptford, New Jersey, United States of America) with and without 1 μg nonanal was studied in a dual choice trapping assay. Nonanal was placed in a glass vial, separately from the balsamic vinegar, but adjacent to it. In all experiments, 20 3-4 day old, 24 hours starved flies (males and females) were given a choice between two traps. […] After 24 hours, flies in both traps were counted. Various amounts of nonanal were dissolved in DMSO, and then 10 μl of nonanal DMSO solution were placed in a separate glass vial (12×32 mm, Thermo Fisher Scientific. Waltham, Massachusetts, United States of America) adjacent to 0.4 ml of water in one trap. The other trap in the dual choice trapping assay contained 0.4 ml of water plus a separate vial containing 10 μl of DMSO. Twenty 3-4 day old, 24 hours starved flies (males and females) were given a choice between the two traps. After 24 hours, flies in both traps were counted. […] N=10. […] The attraction of starved Drosphila melanogaster males and females to balsamic vinegar to which various amounts of nonanal were added is shown in FIG. 6. Various amounts of nonanal were dissolved in DMSO, and then 10 μl of nonanal DMSO solution were placed in a separate glass vial adjacent to 0.4 ml of balsamic vinegar in one trap. […] After 24 hours, flies in both traps were counted. […]

Musca domestica = experiment: dual choice trapping cage assay with commercial fly trap attractant (STARBAR); type: in vivo; details: 24 hours
Excerpt: FIG. 8A is a schematic drawing showing a design for a dual choice free flight cage trapping assay used to determine the effect of nonanal on the trapping of house flies (Musca domestica) when used in combination with a commercial house fly lure. At the right of the drawing is shown a schematic of a 30 centimeter (cm) by 30 cm cage containing two commercial house fly traps (Trap 1 and Trap 2), each including a plastic cup fitted with a transparent lid that has an opening for the flies. An enlarged view of an individual trap is shown to the left side of the drawing. Inside each trap, at the bottom, is placed a commercial fly attractant as a lure. In addition, each trap is fitted with a 1.5 mL vial containing either 50 microliters (μL) dimethyl sulfoxide (DMSO) or 50 μL of a solution of nonanal in DMSO. For each experiment, 20 house flies are used.
The attraction of fed Musca domestica males and females to a commercial lure and a laboratory-built trap to which various amounts of nonanal were added is shown in […]. […] After 24 hours, house flies in both traps were counted. […]
The other trap in the dual choice trapping assay contained 50 mL of the commercial fly trap attractant lure plus a 50 μl of DMSO only. […] After 24 hours, flies in both traps were counted.

[3] = tested on: male corn earworm (CEW, Helicoverpa zea); experiment: field trapping of male CEW in Hartstack traps, nonanal dose study; type: in vivo
Experimental: FIG. 10C is a graph showing the effectiveness of different doses of nonanal in field trapping of male corn earworm (CEW, Helicoverpa zea) using a commercial sex pheromone lure with different doses of nonanal. Effectiveness is measured as the number of male CEW captured per trap per day. The data for the two bars on the left are from traps with no commercial pheromone dispenser, while the data for the six bars on the right are from traps with the commercial pheromone dispenser in combination with the dispenser containing either paraffin oil alone (0 percent (%) nonanal) or a paraffin oil solution comprising 0.5% to 8% nonanal (weight to weight relative to the amount of the main component of the commercial sex pheromone).
Some of the traps also contained, adjacent to the glass vials, a lure comprising a rubber septum formulated with the commercial CEW sex pheromone. Assuming that the commercial pheromone lure contained about 2 mg of the major component (i.e., (Z)-11-hexadecenal), the solutions in the glass vials were prepared to contain various amounts (0%, 0.5%, 1%, 2%, 4%, or 8%) of nonanal on a weight to weight basis with the (Z)-11-hexadecenal.

Drosophila melanogaster [4] = experiment: dual choice trapping cage assay with commercial fruit fly traps and lure (TERRO); type: in vivo; details: 24 hours
Experimental: FIG. 7A is a schematic drawing showing a design for a dual choice free flight cage trapping assay used to determine the effect of nonanal on the trapping of fruit flies (Drosophila melanogaster) when used in combination with a commercial fruit fly lure. Inside a 30 centimeter (cm) by 30 cm cage are placed two commercial fruit fly traps. Inside each commercial fruit fly trap is placed 1 milliliter (mL) of a commercial fruit fly lure. In addition, in one trap (Trap 1) is placed a 1.5 mL vial containing 50 microliters (μL) dimethyl sulfoxide (DMSO), while in the other trap (Trap 2) is placed a 1.5 mL vial containing 50 μL of a solution of nonanal in DMSO. For each experiment 40 to 120 fruit flies are used. The attraction of starved Drosphila melanogaster males and females to a commercial lure and trap to which various amounts of nonanal were added is shown in FIG. 7B. In all experiments, 40 to 120 3-4 day old, 24 hours starved flies (males and females) were given a choice between two commercial fruit fly traps (sold under the tradename TERRO® traps; Model #BT2502; Senoret Chemicals Co., Inc., Lititz, Pennsylvania, United States of America). […] After 24 hours, flies in both traps were counted. […] After 24 hours, flies in both traps were counted.

CCCCCCCCC=O [nonanal]
effectiveness in trapping male CEW, without commercial pheromone lure [1]: not effective in trapping male CEW
effectiveness of commercial lure in trapping male CEW when combined [1]: improved its effectiveness
EAD response of the antenna (male CEW antenna): elicit an EAD response in the antenna
attraction of flies to balsamic vinegar at highest amount of nonanal (Drosophila melanogaster [2]; highest amount of nonanal (1000 μg) in DMSO adjacent to balsamic vinegar): interferes with attraction of flies to balsamic vinegar
flies trapped, nonanal trap versus trap without nonanal (Drosophila melanogaster [2]; increasing amount of nonanal (e.g., 1 μg) in DMSO in vial adjacent to 0.4 ml balsamic vinegar, other trap balsamic vinegar and DMSO): more flies are trapped
flies trapped, nonanal trap versus trap without nonanal (Drosophila melanogaster [2]; nonanal at various concentrations in DMSO (10 μl) in vial adjacent to 0.4 ml water, other trap water and DMSO only, starved males and females): does not trap any more flies than traps containing water and DMSO only
house flies trapped, nonanal trap versus trap without nonanal (Musca domestica; increasing amount of nonanal in 50 μl DMSO with 50 mL commercial fly trap attractant lure, other trap lure plus DMSO, fed flies): more house flies are trapped
attraction of house flies to commercial fly trap attractant lure at too much nonanal (Musca domestica; too much nonanal in 50 μl DMSO with 50 mL commercial fly trap attractant lure): interferes with attraction of flies to the commercial fly trap attractant lure
trap effectiveness with commercial CEW sex pheromone ([3]; e.g. 0.5% to 4% nonanal (w/w to (Z)-11-hexadecenal) added to trap with commercial CEW sex pheromone): increased the trap effectiveness
effectiveness in capturing male CEW, no commercial pheromone ([3]; traps containing only nonanal in paraffin oil, no commercial CEW sex pheromone lure): not effective in capturing male CEW
flies trapped, nonanal trap versus trap without nonanal (Drosophila melanogaster [4]; increasing amount of nonanal in 50 μl DMSO with 1 mL commercial fruit fly lure, other trap lure plus DMSO): more flies are trapped
attraction of flies to commercial fruit fly lure at too much nonanal (Drosophila melanogaster [4]; too much nonanal in 50 μl DMSO with 1 mL commercial fruit fly lure): interferes with attraction of flies to the commercial fruit fly lure

CCCCCCO [1-hexanol]
effectiveness in trapping male CEW, without commercial pheromone lure [1]: not effective in trapping male CEW
effectiveness of commercial lure in trapping male CEW when combined [1]: improved its effectiveness
EAD response of the antenna (male CEW antenna): elicit an EAD response in the antenna
